Results published in US20230129326A1, “METHODS TO PREVENT SARS-COV-2 INFECTION AND TREAT COVID-19” (priority 2020, published 2023).
≈ marks a conversion by molar mass, not a printed value. Entries after “also recorded” stand apart in the source; their conditions may differ. Read-outs that look alike come from different tables or passages of the source.

Experiments:
[1] = target: ACE2 (Homo sapiens, UniProt Q9BYF1); type: biochemical
[2] = tested on: SARS-CoV-2; experiment: N protein copies by qPCR in VeroE6 cells infected with SARS-CoV-2; type: cell-based; conditions: VeroE6, MOI 0.01, 48 h; drug by itself
[3] = target: ACE2/SARS spike protein interaction (Homo sapiens, UniProt Q9BYF1); type: cell-based, SARS-CoV
ACE2/SARS spike protein interaction, sequence (Q9BYF1 18-805 limits assumed): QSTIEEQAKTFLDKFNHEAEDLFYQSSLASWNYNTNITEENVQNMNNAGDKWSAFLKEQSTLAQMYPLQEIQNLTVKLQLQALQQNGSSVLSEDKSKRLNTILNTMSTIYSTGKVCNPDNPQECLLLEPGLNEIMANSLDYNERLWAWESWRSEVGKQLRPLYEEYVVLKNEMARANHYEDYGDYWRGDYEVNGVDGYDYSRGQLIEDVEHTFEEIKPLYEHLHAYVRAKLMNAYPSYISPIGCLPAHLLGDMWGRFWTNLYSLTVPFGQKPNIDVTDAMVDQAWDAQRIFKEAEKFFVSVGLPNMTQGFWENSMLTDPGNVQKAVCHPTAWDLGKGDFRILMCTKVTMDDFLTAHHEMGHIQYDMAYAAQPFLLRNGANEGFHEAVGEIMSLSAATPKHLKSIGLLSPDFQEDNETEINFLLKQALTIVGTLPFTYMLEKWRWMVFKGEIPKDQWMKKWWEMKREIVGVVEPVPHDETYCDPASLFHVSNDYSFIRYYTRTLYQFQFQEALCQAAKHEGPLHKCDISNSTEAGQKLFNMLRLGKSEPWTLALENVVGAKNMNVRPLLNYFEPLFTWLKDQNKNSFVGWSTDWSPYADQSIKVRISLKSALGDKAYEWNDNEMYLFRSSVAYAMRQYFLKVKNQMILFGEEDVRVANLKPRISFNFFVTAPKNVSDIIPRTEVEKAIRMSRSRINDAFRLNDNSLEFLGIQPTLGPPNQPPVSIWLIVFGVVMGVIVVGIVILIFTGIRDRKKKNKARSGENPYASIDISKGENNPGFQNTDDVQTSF

[4] = tested on: SARS-CoV-2 infection; experiment: Drug usage versus SARS-CoV-2 infection in UCSF Health population; type: in vivo; conditions: for Odds ratio: drug usage vs SARS-CoV-2 infection; for correlation of usage with protection from SARS-CoV-2 infection: statistically significant
[5] = tested on: SARS-CoV-2 isolate USA-UF-1/2020; experiment: microbe, parasite or virus in culture; type: cell-based; conditions: for EC50: Severe acute respiratory syndrome coronavirus 2, Vero C1008, read-out: EC50, 50% inhibition of SARS-CoV-2 isolate USA-UF-1/2020 infection of Vero E6 cells
[6] = tested on: SARS-CoV-2 virus (isolate USA-WA1/2020); experiment: microbe, parasite or virus in culture; type: cell-based
[7] = Cytotoxicity (50% cytotoxic concentration); type: cell-based
[8] = tested on: SARS-CoV-2 isolate USA-UF-1/2020; type: cell-based
[9] = tested on: SARS-CoV-2 Strain WA-1; design: species or system hACE2-transgenic mice; conditions: mouse, in vivo
[10] = design: species or system mice; conditions: mouse, in vivo

ACE2, sequence (Q9BYF1 18-805): as the sequence (Q9BYF1 18-805 limits assumed) above

For `CCN(CC)CCCN(c1ccccc1)C1Cc2ccccc2C1` [Aprindine, aprindine], the “ACE2 binding activity (velocity of ACE2)” value [1] was “Inhibited velocity of ACE2”.
In the case of `CC(CN1c2ccccc2Sc2ccccc21)N(C)C` (centres unmarked) [Promethazine], the “reduction of viral replication in vitro” value [2] was ~100 ×.
In the case of `NCCNCCN1CC1` [N-(2-aminoethyl)-1 aziridine-ethanamine, N-(2-aminoethyl)-1-aziridine-ethanamine], the “ACE2 binding activity (velocity of ACE2)” value [1] was “Inhibits velocity of ACE2”, the “ACE2/SARS spike protein interaction” value [3] was “inhibited ACE2 interactions with SARS-CoV spike protein; also recorded: Inhibits ACE2/SARS spike protein interaction” and the “SARS S-glycoprotein-mediated cell fusion” value [3] was “effective in blocking the SARS coronavirus spike protein-mediated cell fusion; also recorded: inhibits SARS S-glycoprotein-mediated cell fusion; also recorded: inhibition of SARS S-glycoprotein-mediated cell fusion”.
In the case of `CN(C)CC/C=C1/c2ccccc2Sc2ccc(Cl)cc21.Cl` [Minithixen, Chlorprothixene hydrochloride], the “ACE2 binding activity (velocity of ACE2)” value ([1]; hydrochloride) was “Inhibited velocity of ACE2”.
With `CN(C)CCC(c1ccc(Br)cc1)c1ccccn1` (centres unmarked) [Brompheniramine] the Odds ratio [4] was 0.76.
In the case of `CC(CCc1ccccc1)NCC(O)c1ccc(O)c(C(N)=O)c1` (centres unmarked) [labetalol], the “ACE2 binding activity (velocity of ACE2)” value [1] was “Enhanced velocity of ACE2”.
In the case of `OCCOCCN1CCN(C(c2ccccc2)c2ccc(Cl)cc2)CC1` (centres unmarked) [hydroxyzine], the “direct antiviral activity against SARS-CoV-2 isolates in vitro” value (“direct antiviral activity” for short) [5] was “exhibited direct antiviral activity”, the EC50 [5] was 15.3 µg/mL (≈ 40.8 µM) and the “ACE2 binding activity (velocity of ACE2)” value [1] was “inhibited ACE2 activity; also recorded: Inhibited velocity of ACE2”. For the same compound, the viral burden [6] was “lowered viral burden to below the level of detection”, the EC50 ([6]; Severe acute respiratory syndrome coronavirus 2, Vero C1008, 48 h, read-out: EC50, viral burden by plaque assay) was 11.3 µg/mL (≈ 30.1 µM) and the EC50 ([6]; Severe acute respiratory syndrome coronavirus 2, Vero C1008, read-out: anti-SARS-CoV-2 activity EC50) was 11.3 µg/mL (≈ 30.1 µM). For the same compound, the 50% cytotoxic concentration [7] was “approximately 50 μg/ml”, the “level of SARS-CoV-2 mRNA expressed in the cells” value [8] was “significantly lowered” and the Odds ratio [4] was 0.76.
With `NCCNCCNCCN` [Triethylenetetramine, triethylenetetramine] the “ACE2 binding activity (velocity of ACE2)” value [1] was “Inhibits velocity of ACE2” and the “ACE2/SARS spike protein interaction” value [3] was “Inhibits ACE2/SARS spike protein interaction”.
In the case of `CN1CCCC(n2nc(Cc3ccc(Cl)cc3)c3ccccc3c2=O)CC1` (centres unmarked) [azelastine], the “direct antiviral activity” value [5] was “exhibited direct antiviral activity”, the EC50 [5] was 2.24 µg/mL (≈ 5.87 µM) and the Odds ratio [4] was 0.16. For the same compound, the “correlation of usage with protection from SARS-CoV-2 infection” value [4] was “correlated with protection from SARS-CoV-2 infection”.
For `CN(C)CCC(c1ccc(Cl)cc1)c1ccccn1` (centres unmarked) [chlorpheniramine], the Odds ratio [4] was 0.23 and the “correlation of usage with protection from SARS-CoV-2 infection” value [4] was “correlated with protection from SARS-CoV-2 infection”.
For LQSYGFQPTNGV peptide, the “lungs at gross necropsy” value [9] was “some damage/abscesses in the lungs”, the “survival at 5 dpi” value [9] was “survived 5 dpi” and the “viral load in the lungs (plaque forming units)” value [9] was “low plaque forming units per liter in the lungs”. For the same compound, the “immune response in mice” value [10] was “induced a strong immune response”.
For `N=C(N)c1ccc(/N=N/Nc2ccc(C(=N)N)cc2)cc1` [diminazene], the “ACE2 binding activity (velocity of ACE2)” value [1] was “Enhanced velocity of ACE2”.
In the case of `CN(C)CCOC(c1ccccc1)c1ccccc1` [diphenhydramine], the “direct antiviral activity” value [5] was “exhibited direct antiviral activity”.
In the case of `O=c1c(O)c(-c2cc(O)c(O)c(O)c2)oc2cc(O)cc(O)c12` [Myricetin, myricetin], the “in vitro activity against SARS-CoV-2” value [6] was “observed to have in vitro activity”.
